Assay results published in patent US11584775B2, “C4-modified oleanolic acid derivatives for inhibition of IL-17 and other uses” (REATA PHARMACEUTICALS, INC., priority 2015, dated 2023).

How the values were obtained:
hIL17 = experiment: IL-17 release from differentiated primary human T-cells (IL-17A HTRF assay); type: cell-based; settings: inhibition of IL-17A levels; primary human CD4+ T cells differentiated into Th17 cells, 46-hour incubation
Description: D. IL-17 Release from Differentiated Primary Human T-Cells and Cell Viability
Primary human cryopreserved CD4+ T Cells (Lonza, donor #0000402103) were plated in Lymphocyte Growth Medium-3 (LGM-3, Lonza) according to the manufacturer's recommendations, and allowed to recover for approximately 3 hours at 37° C. with 5% CO2 in a humidified atmosphere. After the recovery step, cells were collected by centrifugation and re-plated in 96-well plates at a density of ˜140,000 cells per well in LGM-3 medium that contained DMSO (vehicle) or test compound (2-500 nM or 4-1000 nM concentration range). Triplicate wells were plated for each test condition. DMSO (final concentration ≤0.1%) was used as the vehicle. Immediately after plating, CD4+ T cells were activated by adding Dynabeads Human T-Activator CD3/CD28 (Life Technologies; bead-to-cell ratio of 1:2.5) and differentiated into Th17 cells by adding a mixture of the following cytokines: transforming growth factor-β (TGF-β, 5 ng/mL), IL-6 (20 ng/mL), IL-23 (20 ng/mL), and […] (10 ng/mL). Undifferentiated control cells received only cytokine IL-2 (50 ng/mL). All human recombinant cytokines were purchased from R&D Systems. Following a 46-hour incubation at 37° C. with 5% CO2 in a humidified atmosphere, the plates were centrifuged for 3 minutes at 250×g, and half of the supernatant was transferred to a new plate to be used in the IL-17A assay (see below). Cell viability was assessed in the original plate using the CyQuant Direct Assay (Life Technologies). CyQuant values from test compound samples were normalized to those from DMSO-treated samples. The concentration of IL-17A in the supernatant was measured using the Homogeneous Time-Resolved Fluorescence (HTRF) assay (Cisbio Bioassays) according to the manufacturer's protocol. The assay was performed at room temperature in low volume, solid white 384-well plates (Greiner Bio-One). Samples and standards (serially-diluted human recombinant IL-17A (0 to 5,000 pg/mL concentration range; Cisbio Bioassays) were incubated with the anti-human IL-17A antibody conjugate for 16 hours and fluorescence was measured using a Pherastar FS microplate reader (BMG Labtech) in the HTRF mode (excitation at 337 nm and emission at 665 nm and 620 nm). IL-17A concentrations were assessed in duplicate aliquots of supernatant from each well resulting in a total of six readings per test condition. The 665 nm/620 nm signal ratio was calculated and the concentration of IL-17A in each sample was determined by interpolation from the standard curve. IL-17A values from test compound samples were normalized to those from DMSO-treated samples. Data were analyzed using GraphPad Prism version 6.00 for Windows (GraphPad Software, La Jolla Calif. USA). A non-linear regression analysis with log (inhibitor) vs. normalized response using a variable slope was applied to fit the data and determine the IC50 values for inhibition of IL-17A levels and cell viability.

NRF2 = experiment: AREc32 luciferase reporter assay; type: cell-based, human; settings: EC2×: concentration required to increase GST ARE Luciferase reporter activity by 2-fold; AREc32 cells, 19 hours
Description: B. AREc32 Luciferase Reporter Assay
The AREc32 luciferase reporter assay allows for quantitative assessment of the endogenous activity of the Nrf2 transcription factor in cultured mammalian cells. AREc32 cells are derived from MCF-7 human breast carcinoma cells that were stably transfected with a reporter construct that contains the firefly luciferase gene located downstream of eight copies of the rat GSTA2 antioxidant response element (ARE) sequence (Wang et al., 2006; CXR Biosciences). Active NRF2 binds to the ARE sequences and increases expression of the firefly luciferase gene. To assess the NRF2-activating potential of the test compounds, AREc32 cells were plated in black 96-well plates at a density of 20,000 cells per well in triplicate in DMEM+10% FBS+0.8 mg/mL Geneticin and incubated at 37° C. with 5% CO2 in a humidified atmosphere. The next day, cells were treated with DMSO (vehicle) or test compound (concentration ranges of 0.4-200 nM or 2-1000 nM) for 19 hours. Luciferase activity was determined using the ONE-Glo Luciferase assay (Promega). The luminescence signal was measured on a BMG Pherastar microplate reader. The mean luminescence value from test compound-treated wells was normalized to that from DMSO-treated wells and was represented as fold-induction. Data were analyzed using GraphPad Prism version 6.00 for Windows, GraphPad Software, La Jolla Calif. USA. A non-linear regression curve with log (agonist) vs. response using a variable slope was used to fit the data. Where applicable, a maximum threshold value of 50-fold over DMSO was set. EC2× values were interpolated from the curve. EC2× corresponds to the concentration of test compound required to increase GST ARE Luciferase reporter activity by 2-fold.

human RORγ = target: T1, human RORγ (Homo sapiens, UniProt P51449); experiment: RORγ assay (GAL4-RORγ hybrid luciferase reporter, inverse-agonist activity); type: cell-based; settings: GAL4-RORγ hybrid reporter cells, 23 hours
T1 sequence (P51449 269-508 limits assumed): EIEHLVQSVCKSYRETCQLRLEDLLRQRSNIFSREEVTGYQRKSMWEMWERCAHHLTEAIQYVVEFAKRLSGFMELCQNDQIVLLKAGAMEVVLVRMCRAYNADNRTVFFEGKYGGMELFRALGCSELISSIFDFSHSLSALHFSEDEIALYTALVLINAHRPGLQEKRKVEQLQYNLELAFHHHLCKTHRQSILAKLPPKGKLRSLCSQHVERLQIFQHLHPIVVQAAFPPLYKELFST
Description: C. RORγ Assay and Cell Viability
The RORγ assay system was purchased from Indigo Biosciences. This nuclear receptor assay utilizes a human cell line that has been engineered to express a hybrid form of the Human RAR-related Orphan Receptor Gamma (RORγ) at high levels. The N-terminal DNA binding domain (DBD) of the native RORγ receptor was substituted with the yeast GAL4-DBD to generate the GAL4-RORγ hybrid nuclear receptor. The reporter cell line is transfected with a plasmid that encodes the beetle luciferase gene under the control of the GAL4 upstream activating sequence (UAS). GAL4 binds to the UAS and increases transcription of downstream target genes. […] To assess the RORγ inverse-agonist activity of the test compounds, reporter cells were plated in white 96-well plates in triplicate and were treated with DMSO (vehicle) or test compound (concentration ranges of 0.4-200 nM or 2-1000 nM) at 37° C. with 5% CO2 in a humidified atmosphere for 23 hours. After this incubation, luciferin was added to the wells and luciferase activity was determined by measuring the luminescence signal using a BMG Pherastar microplate reader. Viability was determined using the Live Cell Multiplex Assay (Indigo Biosciences). Values from test compound samples were normalized to those from DMSO-treated samples. Data were analyzed using GraphPad Prism version 6.00 for Windows (GraphPad Software, La Jolla Calif. USA). A non-linear regression analysis with log (inhibitor) vs. normalized response using a variable slope was applied to fit the data and determine the IC50 values for inhibition of RORγ and cell viability.

[1] = test system: IFNγ-induced Nitric Oxide production; experiment: Nitric oxide production assay in RAW 264.7 mouse macrophages; type: cell-based; settings: RAW264.7, suppression of IFNγ-induced NO production normalized to cell viability (WST-1), RAW 264.7, 24 hours IFNγ
Description: A. Nitric Oxide Production Assay and Cell Viability
RAW 264.7 mouse macrophages were plated in 96-well plates at a density of 30,000 cells per well in triplicate in RPMI 1640+0.5% FBS and incubated at 37° C. with 5% CO2 in a humidified atmosphere. The next day, cells were pre-treated with DMSO (vehicle) or test compound (concentration ranges of 0.4-200 nM or 2-1000 nM) for 2 hours and then treated with recombinant mouse IFNγ (R&D Systems) for 24 hours. Nitric oxide concentration in media was determined using the Griess reagent system (Promega). Cell viability was determined using WST-1 reagent (Roche). Values from test compound samples were normalized to those from DMSO/IFNγ-treated samples. IC50 values were determined based on the suppression of IFNγ-induced Nitric Oxide production normalized to cell viability.

IC50 (hIL17) [nM] | IC50 (human RORγ) [nM] | SMILES | EC2x: concentration giving 2-fold induction of ARE luciferase reporter (NRF2) [nM] | IC50 [1] [nM]
35 | 135 | COC(=O)N[C@]12CCC(C)(C)C[C@H]1[C@H]1C(=O)C=C3[C@@]4(C)C=C(C#N)C(=O)[C@@](C)(COC(C)=O)[C@@H]4CC[C@@]3(C)[C@]1(C)CC2 [Compound T41, ((4R,4aR,6aS,6bR,8aS,12aS,12bR,14bS)-2-cyano-8a-((methoxycarbonyl)amino)-4,6a,6b, 11,11,11,14b-hexamethyl-3,13-dioxo-3,4,4a,5,6,6a,6b,7,8,8a,9,10,11,12,12a,12b,13,14b-octadecahydropicen-4-yl)methyl acetate] | 330 | 151
62 | 410 | CC1(C)CC[C@]2(NC(=O)C(C)(F)F)CC[C@]3(C)[C@H](C(=O)C=C4[C@@]5(C)C=C(C#N)C(=O)[C@@](C)(O)[C@@H]5CC[C@]43C)[C@@H]2C1 [Compound T27, N-((4aS,6aR,6bS,8aR,9S,12aS,14aR,14bS)-11-cyano-9-hydroxy-2,2,6a,6b,9,12a-hexamethyl-10,14-dioxo-1,3,4,5,6,6a,6b,7,8,8a,9,10,12a,14,14a,14b-hexadecahydropicen-4a(2H)-yl)-2,2-difluoropropanamide] | 396 | 146
40 | 144 | COC(=O)[C@]12CCC(C)(C)C[C@H]1[C@H]1C(=O)C=C3[C@@]4(C)C=C(C#N)C(=O)C[C@@H]4CC[C@@]3(C)[C@]1(C)CC2 [Compound T1] | 50 | 8.1
29 | 234 | COC(=O)[C@]12CCC(C)(C)C[C@H]1[C@H]1C(=O)C=C3[C@@]4(C)C=C(C#N)C(=O)[C@@](C)(C(F)F)[C@@H]4CC[C@@]3(C)[C@]1(C)CC2 [Compound T4, methyl (4aS,6aR,6bS,8aR,9S,12aS,14aR,14bS)-11-cyano-9-(difluoromethyl)-2,2,6a,6b,9,12a-hexamethyl-10,14-dioxo-1,3,4,5,6,6a,6b,7,8,8a,9,10,12a,14,14a,14b-hexadecahydropicene-4a(2H)-carboxylate] | 36 | 19.6
92 | 406 | COC(=O)[C@]12CCC(C)(C)C[C@H]1[C@H]1C(=O)C=C3[C@@]4(C)C=C(C#N)C(=O)[C@@](C)(c5nnc(C)o5)[C@@H]4CC[C@@]3(C)[C@]1(C)CC2 [Compound T16, methyl (4aS,6aR,6bS,8aR,9R,12aS,14aR,14bS)-11-cyano-2,2,6a,6b,9,12a-hexamethyl-9-(5-methyl-1,3,4-oxadiazol-2-yl)-10,14-dioxo-1,3,4,5,6,6a,6b,7,8,8a,9,10,12a,14,14a,14b-hexadecahydropicene-4a(2H)-carboxylate] | >1000 | 615
139 | 1690 | CC1(C)CC[C@]2(NC(=O)C(C)(F)F)CC[C@]3(C)[C@H](C(=O)C=C4[C@@]5(C)[C@H]6O[C@@]6(C#N)C(=O)[C@@](C)(O)[C@@H]5CC[C@]43C)[C@@H]2C1 [Compound T51, N-((1aR,3S,3aR,5aS,5bR,7aS,11aS,11bR,13bS,13cR)-1a-cyano-3-hydroxy-3,5a,5b,10,10,13b-hexamethyl-2,12-dioxo-1a,3,3a,4,5,5a,5b,6,7,8,9,10,11,11a,11b,12,13b,13c-octadecahydropiceno[1,2-b]oxiren-7a(2H)-yl)-2,2-difluoropropanamide] | 840 | 119
20 | 177 | CC1(C)CC[C@@]23CC[C@@]4(C)[C@]5(C)CC[C@@H]6[C@](C)(C=C(C#N)C(=O)[C@@]6(C)CO)C5=CC(=O)[C@]4(OC2=O)[C@@H]3C1 [Compound T31, (4R,4aR,6aR,6bS,8aS,12aR,12bS,14bS)-4-(hydroxymethyl)-4,6a,6b, 11,11,14b-hexamethyl-3,13,16-trioxo-4,4a,5,6,6a,6b,7,8,10,11,12,12a,13,14b-tetradecahydro-3H,9H-12b,8a-(epoxymethano)picene-2-carbonitrile] | 21 | 10.5
37 | 141 | CC(=O)OC[C@]1(C)C(=O)C(C#N)=C[C@]2(C)C3=CC(=O)[C@@H]4[C@@H]5CC(C)(C)CC[C@]5(NC(=O)C(C)(F)F)CC[C@@]4(C)[C@]3(C)CC[C@H]21 [Compound T29, ((4R,4aR,6aS,6bR,8aS,12aS,12bR,14bS)-2-cyano-8a-(2,2-difluoropropanamido)-4,6a,6b,11,11,14b-hexamethyl-3,13-dioxo-3,4,4a,5,6,6a,6b,7,8,8a,9,10,11,12,12a,12b,13,14b-octadecahydropicen-4-yl)methyl acetate] | 360 | 118
